From article PMC6273472, “Design, Synthesis and Biological Evaluation of 6-(2,6-Dichloro-3,5-dimethoxyphenyl)-4-substituted-1H-indazoles as Potent Fibroblast Growth Factor Receptor Inhibitors” (Molecules, 2016)

What was measured:
FGFR2 = system: FGFR2; design: method as in PMID 21936542; conditions: molecular level; cited from earlier work
FGFR4 = system: FGFR4; design: method as in PMID 21936542; conditions: molecular level; cited from earlier work
FGFR3 = system: FGFR3; design: method as in PMID 21936542; conditions: molecular level; cited from earlier work
FGFR1 = FGFR1 (Homo sapiens, UniProt P11362); test: ELISA kinase assay (FGFR1 enzymatic assay); assay type: biochemical
Chain of FGFR1 (P11362 22-822): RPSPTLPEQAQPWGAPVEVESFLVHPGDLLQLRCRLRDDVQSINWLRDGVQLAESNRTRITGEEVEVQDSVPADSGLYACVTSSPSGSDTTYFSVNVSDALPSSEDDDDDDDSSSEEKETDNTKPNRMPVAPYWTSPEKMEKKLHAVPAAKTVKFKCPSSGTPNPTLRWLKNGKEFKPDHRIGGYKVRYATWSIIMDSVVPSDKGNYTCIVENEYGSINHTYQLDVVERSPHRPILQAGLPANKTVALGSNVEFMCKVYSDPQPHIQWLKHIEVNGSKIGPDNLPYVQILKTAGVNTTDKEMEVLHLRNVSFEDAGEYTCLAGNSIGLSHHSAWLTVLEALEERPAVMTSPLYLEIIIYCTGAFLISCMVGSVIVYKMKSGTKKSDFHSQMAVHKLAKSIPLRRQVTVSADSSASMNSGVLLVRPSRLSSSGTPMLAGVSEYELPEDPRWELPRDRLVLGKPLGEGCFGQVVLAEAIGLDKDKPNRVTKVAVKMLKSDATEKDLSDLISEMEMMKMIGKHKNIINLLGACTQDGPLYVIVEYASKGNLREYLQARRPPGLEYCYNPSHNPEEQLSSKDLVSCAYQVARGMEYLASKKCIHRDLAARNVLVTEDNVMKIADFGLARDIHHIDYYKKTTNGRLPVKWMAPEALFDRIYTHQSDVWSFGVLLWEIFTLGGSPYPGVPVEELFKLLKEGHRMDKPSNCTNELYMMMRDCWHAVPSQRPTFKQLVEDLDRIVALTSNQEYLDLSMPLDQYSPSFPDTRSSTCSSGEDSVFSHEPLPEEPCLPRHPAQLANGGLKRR
Experimental: The effects of compounds on the activities of FGFR1 kinases were determined using enzyme-linked immunosorbent assays (ELISAs) with purified recombinant proteins. Briefly, 20 μg/mL poly (Glu, Tyr)4:1 (Sigma, St. Louis, MO, USA) was pre-coated in 96-well plates as a substrate. A 50-μL aliquot of 10 μmol/L ATP solution diluted in kinase reaction buffer (50 mmol/L HEPES [pH 7.4], 50 mmol/L MgCl2, 0.5 mmol/L MnCl2, 0.2 mmol/L Na3VO4, and 1 mmol/L DTT) was added to each well; 1 μL of various concentrations of compounds diluted in 1% DMSO (v/v) (Sigma) were then added to each reaction well. DMSO (1%, v/v) was used as the negative control. The kinase reaction was initiated by the addition of purified tyrosine kinase proteins diluted in 49 μL of kinase reaction buffer. After incubation for 60 min at 37 °C, the plate was washed three times with phosphate-buffered saline (PBS) containing 0.1% Tween 20 (T-PBS). Anti-phosphotyrosine (PY99) antibody (100 μL; 1:500, diluted in 5 mg/mL BSA T-PBS) was then added. After a 30-min incubation at 37 °C, the plate was washed three times, and 100 μL horseradish peroxidase-conjugated goat anti-mouse IgG (1:2000, diluted in 5 mg/mL BSA T-PBS) was added. The plate was then incubated at 37 °C for 30 min and washed 3 times. A 100-μL aliquot of a solution containing 0.03% H2O2 and 2 mg/mL o-phenylenediamine in 0.1 mol/L citrate buffer (pH 5.5) was added. The reaction was terminated by the addition of 50 μL of 2 mol/L H2SO4 as the color changed, and the plate was analyzed using a multi-well spectrophotometer (SpectraMAX 190, Molecular Devices, Palo Alto, CA, USA) at 490 nm. […] The IC50 values were calculated from the inhibition curves in two separate experiments.

[1] = system: tumors harboring FGFR signaling aberrations; conditions: phase I trial, patients with tumors harboring FGFR signaling aberrations; cited from earlier work

Row | Molecule | IC50 (FGFR2) [nM] | IC50 (FGFR4) [nM] | IC50 (FGFR3) [nM] | Enzyme Inhibition (%) (FGFR1; 0.1 μmol/L compound) | Enzyme Inhibition (%) (FGFR1; 1 μmol/L compound) | on-target activity observed in patients [1]
1 | CCN1CCN(c2ccc(Nc3cc(N(C)C(=O)Nc4c(Cl)c(OC)cc(OC)c4Cl)ncn3)cc2)CC1 [NVP-BGJ398, 3-(2,6-dichloro-3,5-dimethoxy-phenyl)-1-{6-[4-(4-ethyl-piperazin-1-yl)-phenylamino]-pyrimidin-4-yl}-1-methyl-urea] | 1.4 | […] | […] | – | – | –
2 | AZD4547 [reference compound] | – | – | – | 93.2 | 94.3 | five of 20
